Columns and labels:
Format in all cases: in vivo
[1] = system: Echinochloa crus-galli var. crus-galli; assay: Test Example 4: herbicidal effect by soil treatment (symbol H); conditions: 320 g/ha
In short: (§1)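 Seeds were sown in sterilized diluvial soil, covered with about 1.5 cm of soil, and the soil surface was sprayed with a water-diluted emulsion of the compound at a predetermined rate. Plants grew in a greenhouse at 25° C. to 30° C.; effects were scored visually 3 weeks after application.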

[2] = system: Chenopodium album; assay: Test Example 4: herbicidal effect by soil treatment (symbol O); conditions: 320 g/ha
In short: as §1

[3] = system: Echinochloa crus-galli var. crus-galli; assay: Test Example 3: herbicidal effect by foliage application, Wagner pot (symbol H); conditions: application herbicide amount 320 g/ha
In short: (§2)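 Rating at 3 weeks post-spray, by defined criteria. Treatment: emulsion diluted with water to a predetermined amount, applied evenly to foliage of 14-day-old plants raised in alluvial soil flooded 0.1–0.5 cm deep at 25–30 °C, rice co-sown.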

[4] = system: Echinochloa oryzacola Vasing.; assay: Test Example 2: herbicidal activity, application during weed generation in submerged conditions (symbol A); conditions: Table 23; application herbicide amount 320 g/ha; grade 0-5 by criteria of Test Example 1
In short: (§3)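 Flooded-soil post-emergence test: emulsion of compound, water-diluted to target rate, applied to paddy water surface at 1–2 leaf stage of mixed-sown weeds (alluvial soil, 4 cm water, 25–30° C. greenhouse); visual rating 3 weeks after application.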

[5] = system: Chenopodium album; assay: Test Example 5: herbicidal effect by foliage application, plastic box (symbol O); conditions: 320 g/ha, 3 weeks after application
In short: (§4)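 Seeds were sown in sterilized diluvial soil, covered with about 1.5 cm of soil and grown 14 days in a greenhouse at 25° C. to 30° C. An emulsifiable formulation diluted in water to a set rate was sprayed over foliage, and injury was scored 3 weeks later.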

[6] = system: Stellaria media; assay: Test Example 5: herbicidal effect by foliage application, plastic box (symbol P); conditions: 320 g/ha, 3 weeks after application
In short: as §4

[7] = system: rice plant; assay: Test Example 5: effect on crop by foliage application, plastic box (symbol b); conditions: 320 g/ha, 3 weeks after application
In short: (§5)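 Diluvial soil, sterilized and boxed (21 × 13 × 7 cm), received spot-sown seed covered by about 1.5 cm soil; plants were then greenhouse-grown at 25–30° C.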

[8] = system: wheat; assay: Test Example 4: effect on crop by soil treatment (symbol e); conditions: 320 g/ha
In short: (§6)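 Greenhouse culture at 25° C. to 30° C. followed sowing of seed in spots on sterilized diluvial soil with a soil cover close to 1.5 cm thick.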

[9] = system: Lolium multiflorum Lam.; assay: Test Example 4: herbicidal effect by soil treatment (symbol K); conditions: 320 g/ha
In short: as §1

[10] = system: beet; assay: Test Example 5: effect on crop by foliage application, plastic box (symbol f); conditions: 320 g/ha, 3 weeks after application
In short: as §5

[11] = system: Veronica persica; assay: Test Example 5: herbicidal effect by foliage application, plastic box (symbol R); conditions: 320 g/ha, 3 weeks after application
In short: as §4

[12] = system: Scirpus juncoides; assay: Test Example 2: herbicidal activity, application during weed generation in submerged conditions (symbol B); conditions: Table 23; application herbicide amount 320 g/ha; grade 0-5 by criteria of Test Example 1
In short: as §3

[13] = system: beet; assay: Test Example 4: effect on crop by soil treatment (symbol f); conditions: 320 g/ha
In short: as §6

[14] = system: Abutilon theophrasti; assay: Test Example 5: herbicidal effect by foliage application, plastic box (symbol M); conditions: 320 g/ha, 3 weeks after application
In short: as §4

[15] = system: Alopecurus myosuroides; assay: Test Example 4: herbicidal effect by soil treatment (symbol J); conditions: 320 g/ha
In short: as §1

[16] = system: Setaria viridis; assay: Test Example 5: herbicidal effect by foliage application, plastic box (symbol G); conditions: 320 g/ha, 3 weeks after application
In short: as §4

[17] = system: Cyperus difformis; assay: Test Example 3: herbicidal effect by foliage application, Wagner pot (symbol E); conditions: application herbicide amount 320 g/ha
In short: as §2

[18] = system: soybean; assay: Test Example 4: effect on crop by soil treatment (symbol d); conditions: 320 g/ha
In short: as §6

[19] = system: Amaranthus retroflexus; assay: Test Example 5: herbicidal effect by foliage application, plastic box (symbol N); conditions: 320 g/ha, 3 weeks after application
In short: as §4

[20] = system: Amaranthus retroflexus; assay: Test Example 4: herbicidal effect by soil treatment (symbol N); conditions: 320 g/ha
In short: as §1

Row | Compound | H: Echinochloa crus-galli var. crus-galli, herbicidal effect grade [1] | O: Chenopodium album, herbicidal effect grade [2] | herbicidal effect on H (Echinochloa crus-galli var. crus-galli), grade 0-5 [3] | Herbicidal effect grade, A: Echinochloa oryzacola Vasing. [4] | O: Chenopodium album, herbicidal effect (criteria 0-5) [5] | P: Stellaria media, herbicidal effect (criteria 0-5) [6] | b: directly sowed rice plant, effect on crop (criteria 0-5) [7] | e: wheat, effect grade on crop [8] | K: Lolium multiflorum Lam., herbicidal effect grade [9] | f: beet, effect on crop (criteria 0-5) [10] | R: Veronica persica, herbicidal effect (criteria 0-5) [11] | Herbicidal effect grade, B: Scirpus juncoides [12] | f: beet, effect grade on crop [13] | M: Abutilon theophrasti, herbicidal effect (criteria 0-5) [14] | J: Alopecurus myosuroides, herbicidal effect grade [15] | G: Setaria viridis, herbicidal effect (criteria 0-5) [16] | herbicidal effect on E, grade 0-5 [17] | d: soybean, effect grade on crop [18] | N: Amaranthus retroflexus, herbicidal effect (criteria 0-5) [19] | N: Amaranthus retroflexus, herbicidal effect grade [20]
1 | CC(CC1CC(O)=C(c2c(C)cc(C)cc2C)C1=O)=NOCC[S+](C)[O-] (centres unmarked) [1-125] | 5 (Herbicidal ratio of 90% or more (almost completely withered)) | 0 (Herbicidal ratio of 5% or lower (almost no effect)) | 5 (Herbicidal ratio of 90% or more (almost completely withered)) | 2 (Herbicidal ratio of 20% or higher and lower than 40%) | 1 (Herbicidal ratio of 5% or higher and lower than 20%) | 2 (Herbicidal ratio of 20% or higher and lower than 40%) | 5 (Herbicidal ratio of 90% or more (almost completely withered)) | 3 (Herbicidal ratio of 40% or higher and lower than 70%) | 5 (Herbicidal ratio of 90% or more (almost completely withered)) | 0 (Herbicidal ratio of 5% or lower (almost no effect)) | 2 (Herbicidal ratio of 20% or higher and lower than 40%) | 0 (Herbicidal ratio of 5% or lower (almost no effect)) | 0 (Herbicidal ratio of 5% or lower (almost no effect)) | 0 (Herbicidal ratio of 5% or lower (almost no effect)) | 0 (Herbicidal ratio of 5% or lower (almost no effect)) | 5 (Herbicidal ratio of 90% or more (almost completely withered)) | 2 (Herbicidal ratio of 20% or higher and lower than 40%) | 0 (Herbicidal ratio of 5% or lower (almost no effect)) | 0 (Herbicidal ratio of 5% or lower (almost no effect)) | 0 (Herbicidal ratio of 5% or lower (almost no effect))
2 | Cc1cc(C)c(C2=C(O)CC(CC(=NOCC(F)(F)F)C3CC3)C2=O)c(C)c1 (centres unmarked) [1-131] | 5 (Herbicidal ratio of 90% or more (almost completely withered)) | 0 (Herbicidal ratio of 5% or lower (almost no effect)) | 5 (Herbicidal ratio of 90% or more (almost completely withered)) | 4 (Herbicidal ratio of 70% or higher and lower than 90%) | 0 (Herbicidal ratio of 5% or lower (almost no effect)) | 0 (Herbicidal ratio of 5% or lower (almost no effect)) | 4 (Herbicidal ratio of 70% or higher and lower than 90%) | 0 (Herbicidal ratio of 5% or lower (almost no effect)) | 5 (Herbicidal ratio of 90% or more (almost completely withered)) | 0 (Herbicidal ratio of 5% or lower (almost no effect)) | 4 (Herbicidal ratio of 70% or higher and lower than 90%) | 4 (Herbicidal ratio of 70% or higher and lower than 90%) | 0 (Herbicidal ratio of 5% or lower (almost no effect)) | 0 (Herbicidal ratio of 5% or lower (almost no effect)) | 5 (Herbicidal ratio of 90% or more (almost completely withered)) | 5 (Herbicidal ratio of 90% or more (almost completely withered)) | 5 (Herbicidal ratio of 90% or more (almost completely withered)) | 0 (Herbicidal ratio of 5% or lower (almost no effect)) | 0 (Herbicidal ratio of 5% or lower (almost no effect)) | 0 (Herbicidal ratio of 5% or lower (almost no effect))
3 | CON=C(CC1CC(O)=C(c2c(C)cc(C)cc2C)C1=O)c1ccc(F)cc1 (centres unmarked) [1-133] | 4 (Herbicidal ratio of 70% or higher and lower than 90%) | 0 (Herbicidal ratio of 5% or lower (almost no effect)) | 3 (Herbicidal ratio of 40% or higher and lower than 70%) | 1 (Herbicidal ratio of 5% or higher and lower than 20%) | 0 (Herbicidal ratio of 5% or lower (almost no effect)) | 3 (Herbicidal ratio of 40% or higher and lower than 70%) | 1 (Herbicidal ratio of 5% or higher and lower than 20%) | 0 (Herbicidal ratio of 5% or lower (almost no effect)) | 3 (Herbicidal ratio of 40% or higher and lower than 70%) | 3 (Herbicidal ratio of 40% or higher and lower than 70%) | 3 (Herbicidal ratio of 40% or higher and lower than 70%) | 0 (Herbicidal ratio of 5% or lower (almost no effect)) | 0 (Herbicidal ratio of 5% or lower (almost no effect)) | 0 (Herbicidal ratio of 5% or lower (almost no effect)) | 5 (Herbicidal ratio of 90% or more (almost completely withered)) | 4 (Herbicidal ratio of 70% or higher and lower than 90%) | 0 (Herbicidal ratio of 5% or lower (almost no effect)) | 4 (Herbicidal ratio of 70% or higher and lower than 90%) | 0 (Herbicidal ratio of 5% or lower (almost no effect)) | 0 (Herbicidal ratio of 5% or lower (almost no effect))
4 | CON=C(C)CC1CC(OC(=O)CSc2ccccc2)=C(c2c(C)cc(C)cc2C)C1=O (centres unmarked) [1-134] | 5 (Herbicidal ratio of 90% or more (almost completely withered)) | 0 (Herbicidal ratio of 5% or lower (almost no effect)) | 5 (Herbicidal ratio of 90% or more (almost completely withered)) | 5 (Herbicidal ratio of 90% or more (almost completely withered)) | 4 (Herbicidal ratio of 70% or higher and lower than 90%) | 2 (Herbicidal ratio of 20% or higher and lower than 40%) | 5 (Herbicidal ratio of 90% or more (almost completely withered)) | 2 (Herbicidal ratio of 20% or higher and lower than 40%) | 5 (Herbicidal ratio of 90% or more (almost completely withered)) | 0 (Herbicidal ratio of 5% or lower (almost no effect)) | 1 (Herbicidal ratio of 5% or higher and lower than 20%) | 4 (Herbicidal ratio of 70% or higher and lower than 90%) | 0 (Herbicidal ratio of 5% or lower (almost no effect)) | 2 (Herbicidal ratio of 20% or higher and lower than 40%) | 5 (Herbicidal ratio of 90% or more (almost completely withered)) | 5 (Herbicidal ratio of 90% or more (almost completely withered)) | 5 (Herbicidal ratio of 90% or more (almost completely withered)) | 0 (Herbicidal ratio of 5% or lower (almost no effect)) | 1 (Herbicidal ratio of 5% or higher and lower than 20%) | 4 (Herbicidal ratio of 70% or higher and lower than 90%)
